The values that follow come from BindingDB's records for doi:10.7270/Q2TX3D82 (Future University, 2017).

As a reminder, the IC50 is the concentration that gives 50% inhibition.

The experiment addresses T1, Dihydrofolate reductase (Bos taurus, UniProt P00376).
T1 sequence (P00376 whole entry): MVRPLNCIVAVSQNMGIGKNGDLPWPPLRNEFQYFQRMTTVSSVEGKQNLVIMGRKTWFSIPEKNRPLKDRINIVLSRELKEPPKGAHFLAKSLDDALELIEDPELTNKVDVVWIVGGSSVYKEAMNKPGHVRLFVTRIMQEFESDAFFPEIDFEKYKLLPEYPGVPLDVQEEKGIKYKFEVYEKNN
Briefly: Dihydrofolate Reductase (DHFR) Inhibition Assay. The note with it: pH 7.4; 25 °C.

Consider `COc1ccc(-n2c(SCC(=O)NNC(=S)c3ccc(Cl)cc3)nc3ccc(Cl)cc3c2=O)cc1` [1-[2-(6-Chloro)-3-(4-methoxy-phenyl)-4-oxo-3,4-dihydroquinazolin-2-yl-thio)acetyl)-4-(4-chloro)phenyl]thiosemicarbazide (20)], for which the midpoint of inhibition, the IC50, lay at 1.2 µM.

In turn, `COc1ccc(/C=N/NC(=O)CSc2nc3cc(OC)c(OC)cc3c(=O)n2-c2ccc(OC)cc2)cc1` [N'-[4-Methoxybenzylidene-2-(6,7-dimethoxy)-3-(4-methoxy-phenyl)-4-oxo-3,4-dihydroquinazolin-2-yl-thio]acetohydrazide (19)] displayed an IC50 of 8 µM. To `CCOC(=O)CSc1nc2ccc(Cl)cc2c(=O)n1-c1ccc(OC)cc1` [Ethyl 2-(6-chloro-3-(4-methoxyphenyl)-4-oxo-3,4-dihydroquinazolin-2-yl-thio)acetate (12)] belongs 1.7 µM; to `COc1ccc(-n2c(SCc3nnc(S)n3-c3ccc(Cl)cc3)nc3cc(OC)c(OC)cc3c2=O)cc1` [(6,7-Dimethoxy)-2-((4-(4-chlorophenyl)-5-mercapto-4H-1,2,4-triazol-3-yl)methylthio)-3-(4-methoxyphenyl)quinazolin-4(3H)-one (26)], 11 µM. Take `COc1ccc(-n2c(SCc3nnc(Nc4ccc(Cl)cc4)s3)nc3ccc(Cl)cc3c2=O)cc1` [6-Chloro-2-((5-(4-chlorophenylamino)-1,3,4-thiadiazol-2-yl)methylthio)-3-(4-methoxyphenyl)quinazolin-4(3H)-one (28)]: the IC50 was 0.4 µM. The compound `COc1ccc(-n2c(SCC(=O)NN)nc3ccc(Cl)cc3c2=O)cc1` [2-[6-Chloro-3-(4-methoxyphenyl)-4-oxo-3,4-dihydroquinazolin-2-yl-thio] acetohydrazide (14)] had an IC50 of 7.5 µM. To `COc1ccc(Nc2nnc(CSc3nc4cc(OC)c(OC)cc4c(=O)n3-c3ccc(OC)cc3)s2)cc1` [6,7-Dimethoxy-2-((5-(4-methoxyphenylamino)-1,3,4-thiadiazol-2-yl)methylthio)-3-(4-methoxyphenyl)quinazolin-4(3H)-one (31)] belongs 11.8 µM; to `COc1ccc(-n2c(SCC(=O)N/N=C/c3ccc(Cl)cc3)nc3ccc(Cl)cc3c2=O)cc1` [N'-[4-Chlorobenzylidene-2-(6-chloro)-3-(4-methoxy-phenyl)-4-oxo-3,4-dihydroquinazolin-2-yl-thio]acetohydrazide (16)], 19 µM; to `COc1ccc(C(=S)NNC(=O)CSc2nc3cc(OC)c(OC)cc3c(=O)n2-c2ccc(OC)cc2)cc1` [1-[2-(6,7-Dimethoxy)-3-(4-methoxy-phenyl)-4-oxo-3,4-dihydroquinazolin-2-yl-thio)acetyl)-4-(4-methoxy)phenyl]thiosemicarbazide (23)], 0.6 µM. Take `COc1ccc(-n2c(=S)[nH]c3cc(OC)c(OC)cc3c2=O)cc1` [(6,7-Dimethoxy)-2-mercapto-3-(4-methoxyphenyl)quinazolin-4(3H)-ones (11)]: the midpoint of inhibition, the IC50, lay at 29 µM.

Regarding `COc1ccc(-n2c(=S)[nH]c3ccc(Cl)cc3c2=O)cc1` [6-Chloro-2-mercapto-3-(4-methoxyphenyl)quinazolin-4(3H)-ones (10)], the IC50 was found to be 11.5 µM. The value for `COc1ccc(-n2c(SCC(=O)N/N=C/c3ccc(Cl)cc3)nc3cc(OC)c(OC)cc3c2=O)cc1` [N'-[4-Chlorobenzylidene-2-(6,7-dimethoxy)-3-(4-methoxy-phenyl)-4-oxo-3,4-dihydroquinazolin-2-yl-thio]acetohydrazide (18)] was 7.6 µM; that for `COc1ccc(-n2c(S)nnc2CSc2nc3cc(OC)c(OC)cc3c(=O)n2-c2ccc(OC)cc2)cc1` [(6,7-Dimethoxy)-2-((4-(4-methoxyphenyl)-5-mercapto-4H-1,2,4-triazol-3-yl)methylthio)-3-(4-methoxyphenyl)quinazolin-4(3H)-one (27)] was 10.8 µM; that for `COc1ccc(-n2c(SCC(=O)NN)nc3cc(OC)c(OC)cc3c2=O)cc1` [2-[(6,7-Dimethoxy)-3-(4-methoxyphenyl)-4-oxo-3,4-dihydroquinazolin-2-yl-thio] acetohydrazide (15)] was 0.8 µM. In turn, `COc1ccc(Nc2nnc(CSc3nc4ccc(Cl)cc4c(=O)n3-c3ccc(OC)cc3)s2)cc1` [6-chloro-2-((5-(4-methoxyphenylamino)-1,3,4-thiadiazol-2-yl)methylthio)-3-(4-methoxyphenyl)quinazolin-4(3H)-one (29)] registered an IC50 of 4.4 µM. For `COc1ccc(-n2c(SCc3nnc(Nc4ccc(Cl)cc4)s3)nc3cc(OC)c(OC)cc3c2=O)cc1` [6,7-Dimethoxy-2-((5-(4-chlorophenylamino)-1,3,4-thiadiazol-2-yl)methylthio)-3-(4-methoxyphenyl)quinazolin-4(3H)-one (30)], the IC50 came to 14.7 µM. To `COc1ccc(/C=N/NC(=O)CSc2nc3ccc(Cl)cc3c(=O)n2-c2ccc(OC)cc2)cc1` [N'-[4-Methoxybenzylidene-2-(6-chloro)-3-(4-methoxy-phenyl)-4-oxo-3,4-dihydroquinazolin-2-yl-thio]acetohydrazide (17)] belongs 0.01 µM.

In turn, `CCOC(=O)CSc1nc2cc(OC)c(OC)cc2c(=O)n1-c1ccc(OC)cc1` [Ethyl 2-(6,7-dimethoxy-3-(4-methoxyphenyl)-4-oxo-3,4-dihydroquinazolin-2-yl-thio)acetate (13)] came in with an IC50 of 14.4 µM.
